Earlier results, collected in patent US20220160648A1, “Composition Comprising Hydrolyzed Collagen and Cannabidiol and Use Thereof” (Inspired Health Products, LLC, priority 2019, published 2022).

Assays:
[1] = reported
[2] = ingested, dosages from at least 3 g to as much as 60 g per day

C=C(C)[C@@H]1CCC(C)=C[C@H]1c1c(O)cc(CCCCC)cc1O [CBD isolate, 2-[(1R,6R)-3-methyl-6-prop-1-en-2-ylcyclohex-2-en-1-yl]-5-pentylbenzene-1,3-diol]
anticonvulsant properties [1]: did not

NCC(=O)O [glycine]
effect on sleep [2]: beneficial effect on sleep
